The record followed here is ChEMBL document CHEMBL5257018, “Novel Strategies for the Treatment of Pseudomonas aeruginosa Infections” (J Med Chem, 2016).

In brackets after ≈: the same amount, converted by molar mass. Numbered stars: 1 amine (or outer) side, 2 acyl side, 3 side chain; on linkers, the order of the positions; unused ones are H or OH. Bridge positions count the residues as written; N and C are the ends. Square brackets hold non-standard residues; d marks the D form. Side chains are listed from the residue outwards. Peptide text beside a SMILES is read from it. I, II: the chains in the order shown. X2 = COc1cccc2[nH]c(C)c(C[C@H](N[*:1])C(=O)[*:2])c12; dAla(ψthiazole) = C[C@@H](N[*:1])c1nc(C(=O)[*:2])cs1; Trp(4-OMe) = COc1cccc2[nH]cc(C[C@H](N)C(=O)O)c12; X3 = O=C(c1csc([C@@H](CO)N[*:1])n1)[*:2]; GlyΨ(Thz) = O=C(c1csc(CN[*:1])n1)[*:2]; dDab = NCC[C@@H](N)C(=O)O; Orn = NCCC[C@H](N)C(=O)O; dAbu = CC[C@@H](N)C(=O)O; Dab = NCC[C@H](N)C(=O)O; Dha = C=C(N)C(=O)O; Sar = CNCC(=O)O

The first assay addresses T1, PA-I galactophilic lectin (Pseudomonas aeruginosa (strain ATCC 15692 / PAO1 / 1C / PRS 101 / LMG12228), UniProt Q05097).
T1 sequence (Q05097 whole entry): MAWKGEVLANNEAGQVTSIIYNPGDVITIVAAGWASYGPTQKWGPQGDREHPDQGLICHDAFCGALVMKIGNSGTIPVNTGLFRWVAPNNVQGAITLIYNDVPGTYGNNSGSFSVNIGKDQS
In words: Binding affinity to Pseudomonas aeruginosa PAO1 LecA assessed as dissociation constant.
In general, Kd refers to the equilibrium constant for the complex coming apart. For `CC(=O)N[C@H]1C(O)O[C@H](CO)[C@@H](O[C@@H]2O[C@@H](C)[C@@H](O)[C@@H](O)[C@@H]2O)[C@@H]1O[C@@H]1O[C@H](CO)[C@H](O)[C@H](O)[C@H]1O` (stereo partly drawn), the Kd was determined as 212 nM.

A further assay has as its system Pseudomonas aeruginosa. Kind of assay: Antimicrobial activity against Pseudomonas aeruginosa assessed as reduction in bacterial growth. It counts as functional, organism-based.
By MIC50 is commonly meant the lowest concentration that inhibits either 50% of growth or 50% of the strains tested, depending on the study. On to `CC[C@H](C)[C@@H]1NC(=O)[C@H](Cc2c[nH]c3ccccc23)NC(=O)[C@H]([C@@H](C)O)NC(=O)[C@@H]2CCCN2C(=O)[C@H]2CCCN2C(=O)[C@H](CO)NC(=O)[C@H](C)NC(=O)[C@H](CCN)NC(=O)[C@H](CCN)NC(=O)[C@H](Cc2c[nH]c3ccccc23)NC(=O)[C@H](CCN)NC(=O)[C@@H](CCN)NC(=O)[C@H](CCCN)NC(=O)[C@H](CCN)NC1=O` [MUREPAVADIN] (cyclo(TWI[Dab][Orn][dDab][Dab]W[Dab][Dab]AS[dP]P)), for which the MIC50 was found to be 10 µg/mL (≈ 6.44 µM).
The term MIC denotes the least concentration at which growth counts as inhibited. For the compound `CCCCCCCCCCCCCB(O)O`, the MIC stood at 1 µM.
The same measure, in the same setting: the value for `CC[C@H](C)[C@H](NC(=O)[C@H](CCCNC(=N)N)NC(=O)[C@H](CCCNC(=N)N)NC(=O)[C@H](Cc1ccccc1)NC(=O)[C@H](CC(C)C)NC(=O)[C@H](CCCNC(=N)N)NC(=O)[C@@H](N)CCCNC(=N)N)C(=O)N[C@@H](CC(C)C)C(=O)N[C@@H](CCCNC(=N)N)C(=O)N[C@@H](Cc1ccc(O)cc1)C(=O)N[C@@H](CC(C)C)C(=O)O` (H-RRLFRRILRYL-OH) was 2.5 µM.
What is called IC50 is the concentration at which inhibition is half-maximal. As for `C=C1NC(=O)[C@@H](CC)NC(=O)CNC(=O)[C@H](Cc2c[nH]c3cccc(OC)c23)NC(=O)[C@H](Cc2c[nH]c3ccccc23)NC(=O)c2csc(n2)[C@@H](C)NC(=O)CN(C)C1=O` (cyclo([Dha][Sar][dAla(ψthiazole)]W[Trp(4-OMe)]G[dAbu])), the IC50 was 0.08 µg/mL (≈ 0.0954 µM).
Consider `C=C1NC(=O)[C@@H](CC)NC(=O)CNC(=O)[C@H](Cc2c(C)[nH]c3cccc(OC)c23)NC(=O)[C@H](Cc2c[nH]c3ccccc23)NC(=O)c2csc(n2)[C@@H](C)NC(=O)CN(C)C1=O` (cyclo(W[X2]G[dAbu][Dha][Sar][dAla(ψthiazole)])), for which the IC50 was 0.14 µg/mL (≈ 0.164 µM).
As to `COc1c(NC(=O)c2ccc(NC(=O)c3ccc(NC(=O)[C@H](CC#N)NC(=O)c4ccc(NC(=O)/C(C)=C/c5ccc(O)cc5)cc4)cc3)c(OC)c2O)ccc(C(=O)O)c1O`, the MIC came to 1 µg/mL.
In the case of `C=C1NC(=O)[C@@H](C)NC(=O)CNC(=O)[C@H](Cc2c[nH]c3cccc(OC)c23)NC(=O)[C@H](Cc2c[nH]c3ccccc23)NC(=O)c2csc(n2)[C@@H](C)NC(=O)CN(C)C1=O` (cyclo(W[Trp(4-OMe)]G[dA][Dha][Sar][dAla(ψthiazole)])), the half-maximal inhibitory concentration (IC50) is 0.12 µg/mL (≈ 0.145 µM).
With `C=C1NC(=O)[C@@H](C)NC(=O)CNC(=O)[C@H](Cc2c[nH]c3ccccc23)NC(=O)[C@H](Cc2c[nH]c3ccccc23)NC(=O)c2csc(n2)[C@@H](C)NC(=O)CN(C)C1=O`, the 50% inhibitory concentration (IC50) was 1.4 µg/mL (≈ 1.76 µM).
`Cc1ccc2c(C)c3c(c(O)c2c1O)C(=O)[C@]1(O)C(=O)C(C(N)=O)=C(O)[C@H](N)[C@@H]1C3`: the minimum inhibitory concentration (MIC) turned out to be 32 µg/mL.
Same read-out and setting: the value for `CC(C)C[C@H](NC(=O)[C@H](CCCCN)NC(=O)[C@H](CCCCNC(=O)[C@H](CC(C)C)NC(=O)[C@H](CCCCN)NC(=O)[C@H](CCCCNC(=O)[C@H](CC(C)C)NC(=O)[C@H](CCCCN)NC(=O)[C@H](CCCCNC(=O)[C@H](CC(C)C)NC(=O)[C@@H](N)CCCCN)NC(=O)[C@H](CC(C)C)NC(=O)[C@@H](N)CCCCN)NC(=O)[C@H](CC(C)C)NC(=O)[C@H](CCCCN)NC(=O)[C@H](CCCCNC(=O)[C@H](CC(C)C)NC(=O)[C@@H](N)CCCCN)NC(=O)[C@H](CC(C)C)NC(=O)[C@@H](N)CCCCN)NC(=O)[C@H](CC(C)C)NC(=O)[C@H](CCCCN)NC(=O)[C@H](CCCCNC(=O)[C@H](CC(C)C)NC(=O)[C@H](CCCCN)NC(=O)[C@H](CCCCNC(=O)[C@H](CC(C)C)NC(=O)[C@@H](N)CCCCN)NC(=O)[C@H](CC(C)C)NC(=O)[C@@H](N)CCCCN)NC(=O)[C@H](CC(C)C)NC(=O)[C@H](CCCCN)NC(=O)[C@H](CCCCNC(=O)[C@H](CC(C)C)NC(=O)[C@@H](N)CCCCN)NC(=O)[C@H](CC(C)C)NC(=O)[C@@H](N)CCCCN)C(N)=O` (I: H-KLK([Leu-Lys])KLKKLKKL-NH2 / II: H-KLK([Leu-Lys])KLKKL / III: H-KLK([Leu-Lys])KL / IV: H-KLK([Leu-Lys])KL; amide I:6-IV:C, I:9-II:C, II:6-III:C) was 0.4 µM.
Usually MIC90 stands for an inhibitory concentration at the 90% level, which refers to growth in some studies and to a panel of isolates in others. Consider `CN(C)c1cc(NC(=O)CNC(C)(C)C)c(O)c2c1C[C@H]1C[C@H]3[C@H](N(C)C)C(O)=C(C(N)=O)C(=O)[C@@]3(O)C(O)=C1C2=O` [TIGECYCLINE], for which the MIC90 came out at 16 µg/mL (≈ 27.3 µM).
Regarding `C=C1NC(=O)[C@@H](C)NC(=O)CNC(=O)[C@H](Cc2c[nH]c3cccc(OC)c23)NC(=O)[C@H](Cc2c[nH]c3ccccc23)NC(=O)c2csc(n2)[C@@H](CO)NC(=O)CN(C)C1=O` (cyclo([Dha][Sar][X3]W[Trp(4-OMe)]G[dA])), the IC50 amounted to 5 µg/mL (≈ 5.95 µM).
On the same count and under the same terms, then `C=C1NC(=O)[C@@H](CC)NC(=O)CNC(=O)[C@H](Cc2c[nH]c3cccc(OC)c23)NC(=O)[C@H](Cc2c[nH]c3ccccc23)NC(=O)c2csc(n2)[C@@H](CO)NC(=O)CN(C)C1=O` (cyclo([Dha][Sar][X3]W[Trp(4-OMe)]G[dAbu])), with 4 µg/mL (≈ 4.68 µM); and `C=C1NC(=O)[C@@H](C)NC(=O)CNC(=O)[C@H](Cc2c(C)[nH]c3cccc(OC)c23)NC(=O)[C@H](Cc2c[nH]c3ccccc23)NC(=O)c2csc(n2)[C@@H](C)NC(=O)CN(C)C1=O` (cyclo(W[X2]G[dA][Dha][Sar][dAla(ψthiazole)])), with 0.1 µg/mL (≈ 0.119 µM).
As to `C[C@@H](N)C(=O)N[C@H](CCCCN)C(=O)N[C@H](CCCNC(=N)N)C(=O)N[C@H](Cc1c[nH]cn1)C(=O)N[C@H](Cc1c[nH]cn1)C(=O)NCC(=O)N[C@H](Cc1ccc(O)cc1)C(=O)N[C@H](CCCCN)C(=O)N[C@H](CCCNC(=N)N)C(=O)N[C@H](CCCCN)C(=O)N[C@H](Cc1ccccc1)C(=O)N[C@H](Cc1c[nH]cn1)C(N)=O` (H-[dA][dK][dR][dH][dH]G[dY][dK][dR][dK][dF][dH]-NH2), the MIC is 2 µM.
Same read-out and setting: then `CC(C)[C@H](NC(=O)[C@H](Cc1c[nH]c2ccccc12)NC(=O)[C@H](CCCNC(=N)N)NC(=O)[C@H](CCCNC(=N)N)NC(=O)[C@@H](NC(=O)[C@@H](NC(=O)[C@H](CCCNC(=N)N)NC(=O)[C@@H](NC(=O)[C@@H](NC(=O)[C@H](CCCNC(=N)N)NC(=O)[C@H](CCCNC(=N)N)NC(=O)[C@@H](NC(=O)[C@H](Cc1c[nH]c2ccccc12)NC(=O)[C@H](CCCNC(=N)N)NC(=O)[C@H](CCCNC(=N)N)NC(=O)[C@@H](NC(=O)[C@H](CCCNC(=N)N)NC(=O)[C@H](CCCNC(=N)N)NC(=O)[C@@H](NC(=O)[C@H](Cc1c[nH]c2ccccc12)NC(=O)[C@H](CCCNC(=N)N)NC(=O)[C@@H](N)CCCNC(=N)N)C(C)C)C(C)C)C(C)C)C(C)C)C(C)C)C(C)C)C(C)C)C(=O)N[C@@H](CCCNC(=N)N)C(=O)N[C@@H](CCCNC(=N)N)C(=O)O` (H-RRWVRRVRRWVRRVVRVVRRWVRR-OH), with 0.4 µM.
In the case of `C=C1NC(=O)[C@@H](C)NC(=O)CNC(=O)[C@H](Cc2c[nH]c3cccc(OC)c23)NC(=O)[C@H](Cc2c[nH]c3ccccc23)NC(=O)c2csc(n2)CNC(=O)CN(C)C1=O` (cyclo([Dha][Sar][GlyΨ(Thz)]W[Trp(4-OMe)]G[dA])), the half-inhibitory concentration (IC50) worked out at 0.8 µg/mL (≈ 0.987 µM).
